Measurements reported in the NIST ThermoML archive (doi:10.1016/j.jct.2012.10.004).

Settings: Liquid, Vibrating tube method

CCCC[N+]1(C)CCCC1.O=S(=O)([N-]S(=O)(=O)C(F)(F)F)C(F)(F)F
mass density [kg/m3]
Settings | 100 kPa | 1000 kPa | 10000 kPa | 20000 kPa | 40000 kPa | 60000 kPa | 80000 kPa | 100000 kPa | 120000 kPa
278.15 K | 1415.1 | 1415.7 | 1421.5 | 1428 | 1439.8 | 1450.6 | 1460.8 | 1470.2 | 1479.1
298.15 K | 1395.2 | 1395.8 | 1401.8 | 1408.4 | 1420.7 | 1432.2 | 1442.8 | 1452.9 | 1462.9
313.15 K | 1381.6 | 1382.3 | 1388.8 | 1395.8 | 1408.7 | 1420.7 | 1431.6 | 1441.8 | 1451.8
333.15 K | 1364 | 1364.7 | 1371.6 | 1379 | 1392.6 | 1405.2 | 1416.6 | 1427.4 | 1437.6
348.15 K | 1351.1 | 1351.8 | 1359.1 | 1366.9 | 1381.1 | 1394 | 1405.9 | 1416.9 | 1427.5
373.15 K | 1330.5 | 1330.8 | 1338.6 | 1347 | 1362.2 | 1375.9 | 1388.3 | 1399.9 | 1410.9
398.15 K | 1307.8 | 1308.7 | 1316.4 | 1325.3 | 1341.7 | 1356.3 | 1369.7 | 1382 | 1393.5
